# Assay results: ChEMBL document CHEMBL1124696, “Nucleoside peptides. 10. Synthesis and T-cell immunostimulatory properties of certain peptide derivatives of 6-azacadeguomycin” (1989)
# Tests used:
# Type in all cases: functional
# Homo sapiens [1] = organism: Homo sapiens; experiment: Mitogen-induced human lymphocyte proliferation measured by incorporation of [3H]thymidine in lymphocytes with Phytohemagglutininin at a concentration of 0.125 microg with compound at 1 uM
# Homo sapiens [2] = organism: Homo sapiens; experiment: Mitogen-induced human lymphocyte proliferation measured by incorporation of [3H]thymidine in lymphocytes with Phytohemagglutininin at a concentration of 0.125 microg with compound at 50 uM
# Homo sapiens [3] = organism: Homo sapiens; experiment: Mitogen-induced human lymphocyte proliferation measured by incorporation of [3H]thymidine in lymphocytes with Concanavalin A at a concentration of 0.25 microg with compound at 400 uM
# Homo sapiens [4] = organism: Homo sapiens; experiment: Mitogen-induced human lymphocyte proliferation measured by incorporation of [3H]thymidine in lymphocytes with Phytohemagglutininin at a concentration of 1 ug with compound at 1 uM
# Homo sapiens [5] = organism: Homo sapiens; experiment: Mitogen-induced human lymphocyte proliferation measured by incorporation of [3H]thymidine in lymphocytes with Pokeweed mitogen at a concentration of 1/5000 microg with compound at 1 uM
# Homo sapiens [6] = organism: Homo sapiens; experiment: Mitogen-induced human lymphocyte proliferation measured by incorporation of [3H]-thymidine in lymphocytes with Pokeweed mitogen at a concentration of 1/1250 microg with out compound
# Homo sapiens [7] = organism: Homo sapiens; experiment: Mitogen-induced human lymphocyte proliferation measured by incorporation of [3H]thymidine in lymphocytes with Concanavalin A (Con A) at a concentration of 0.25 microg with compound at 10 uM
# Homo sapiens [8] = organism: Homo sapiens; experiment: Mitogen-induced human lymphocyte proliferation measured by incorporation of [3H]thymidine in lymphocytes with Phytohemagglutininin at a concentration of 0.125 microg with out compound
# Homo sapiens [9] = organism: Homo sapiens; experiment: Mitogen-induced human lymphocyte proliferation measured by incorporation of [3H]thymidine in lymphocytes with Concanavalin A (Con A) at a concentration of 0.25 microg with out compound
# Homo sapiens [10] = organism: Homo sapiens; experiment: Mitogen-induced human lymphocyte proliferation measured by incorporation of [3H]thymidine in lymphocytes with Pokeweed mitogen at a concentration of 1/5000 microg with compound at 0.1 uM
# Homo sapiens [11] = organism: Homo sapiens; experiment: Mitogen-induced human lymphocyte proliferation measured by incorporation of [3H]thymidine in lymphocytes with Pokeweed mitogen at a concentration of 1/5000 microg with compound at 50 uM
# Homo sapiens [12] = organism: Homo sapiens; experiment: Mitogen-induced human lymphocyte proliferation measured by incorporation of [3H]thymidine in lymphocytes with Pokeweed mitogen at a concentration of 1/1250 microg with compound at 1 uM
# Homo sapiens [13] = organism: Homo sapiens; experiment: Mitogen-induced human lymphocyte proliferation measured by incorporation of [3H]thymidine in lymphocytes with Phytohemagglutininin at a concentration of 1 ug with compound at 10 uM
# Homo sapiens [14] = organism: Homo sapiens; experiment: Mitogen-induced human lymphocyte proliferation measured by incorporation of [3H]thymidine in lymphocytes with Pokeweed mitogen at a concentration of 1/5000 microg with compound at 10 uM
# Homo sapiens [15] = organism: Homo sapiens; experiment: Mitogen-induced human lymphocyte proliferation measured by incorporation of [3H]thymidine in lymphocytes with Pokeweed mitogen at a concentration of 1/1250 microg with compound at 10 uM
# Homo sapiens [16] = organism: Homo sapiens; experiment: Mitogen-induced human lymphocyte proliferation measured by incorporation of [3H]thymidine in lymphocytes with Concanavalin A (Con A) at a concentration of 0.25 microg with compound at 50 uM
# Homo sapiens [17] = organism: Homo sapiens; experiment: Mitogen-induced human lymphocyte proliferation measured by incorporation of [3H]thymidine in lymphocytes with Pokeweed mitogen at a concentration of 1/1250 microg with compound at 50 uM
# Homo sapiens [18] = organism: Homo sapiens; experiment: Mitogen-induced human lymphocyte proliferation measured by incorporation of [3H]thymidine in lymphocytes with Phytohemagglutininin at a concentration of 1 ug with compound at 50 uM
# Homo sapiens [19] = organism: Homo sapiens; experiment: Mitogen-induced human lymphocyte proliferation measured by incorporation of [3H]thymidine in lymphocytes with Pokeweed mitogen at a concentration of 1/1250 microg with compound at 0.1 uM
# Homo sapiens [20] = organism: Homo sapiens; experiment: Mitogen-induced human lymphocyte proliferation measured by incorporation of [3H]thymidine in lymphocytes with Pokeweed mitogen at a concentration of 1/1250 microg with compound at 400 uM
# Homo sapiens [21] = organism: Homo sapiens; experiment: Mitogen-induced human lymphocyte proliferation measured by incorporation of [3H]thymidine in lymphocytes with Phytohemagglutininin at a concentration of 0.125 microg with compound at 0.1 uM
# Homo sapiens [22] = organism: Homo sapiens; experiment: Mitogen-induced human lymphocyte proliferation measured by incorporation of [3H]thymidine in lymphocytes with Concanavalin A (Con A) at a concentration of 0.25 microg with compound at 1 uM
# Homo sapiens [23] = organism: Homo sapiens; experiment: Mitogen-induced human lymphocyte proliferation measured by incorporation of [3H]thymidine in lymphocytes with Concanavalin A (Con A) at a concentration of 0.25 microg with compound at 0.1 uM
# Homo sapiens [24] = organism: Homo sapiens; experiment: Mitogen-induced human lymphocyte proliferation measured by incorporation of [3H]thymidine in lymphocytes with Phytohemagglutininin at a concentration of 0.125 microg with compound at 10 uM
# Homo sapiens [25] = organism: Homo sapiens; experiment: Mitogen-induced human lymphocyte proliferation measured by incorporation of [3H]thymidine in lymphocytes with Phytohemagglutininin at a concentration of 0.125 microg with compound at 400 uM
# Homo sapiens [26] = organism: Homo sapiens; experiment: Mitogen-induced human lymphocyte proliferation measured by incorporation of [3H]thymidine in lymphocytes with Phytohemagglutininin at a concentration of 1 ug with out compound
# Homo sapiens [27] = organism: Homo sapiens; experiment: Mitogen-induced human lymphocyte proliferation measured by incorporation of [3H]thymidine in lymphocytes with Pokeweed mitogen at a concentration of 1/5000 microg with compound at 400 uM
# Homo sapiens [28] = organism: Homo sapiens; experiment: Mitogen-induced human lymphocyte proliferation measured by incorporation of [3H]thymidine in lymphocytes with Phytohemagglutininin at a concentration of 1 ug with compound at 0.1 uM
# Homo sapiens [29] = organism: Homo sapiens; experiment: Mitogen-induced human lymphocyte proliferation measured by incorporation of [3H]thymidine in lymphocytes with Pokeweed mitogen at a concentration of 1/5000 microg with out compound
# Homo sapiens [30] = organism: Homo sapiens; experiment: Mitogen-induced human lymphocyte proliferation measured by incorporation of [3H]thymidine in lymphocytes with Phytohemagglutininin at a concentration of 1 ug with compound at 400 uM
# Homo sapiens [31] = organism: Homo sapiens; experiment: Mitogen-induced human lymphocyte proliferation measured by incorporation of [3H]thymidine in lymphocytes with Pokeweed mitogen at a concentration of 1/1250 ug with out compound
# Homo sapiens [32] = organism: Homo sapiens; experiment: Mitogen-induced human lymphocyte proliferation measured by incorporation of [3H]-thymidine in lymphocytes with Phytohemagglutininin at a concentration of 0.25 ug with compound at 0.1 uM
# Homo sapiens [33] = organism: Homo sapiens; experiment: Mitogen-induced human lymphocyte proliferation measured by incorporation of [3H]thymidine in lymphocytes with Phytohemagglutininin at a concentration of 0.25 ug with compound at 10 uM
# Homo sapiens [34] = organism: Homo sapiens; experiment: Mitogen-induced human lymphocyte proliferation measured by incorporation of [3H]thymidine in lymphocytes with Pokeweed mitogen at a concentration of 1/1250 ug with compound at 400 uM
# Homo sapiens [35] = organism: Homo sapiens; experiment: Mitogen-induced human lymphocyte proliferation measured by incorporation of [3H]thymidine in lymphocytes with Phytohemagglutininin at a concentration of 0.25 ug with out compound
# Homo sapiens [36] = organism: Homo sapiens; experiment: Mitogen-induced human lymphocyte proliferation measured by incorporation of [3H]thymidine in lymphocytes with Concanavalin A (Con A) at a concentration of 0.5 ug with compound at 50 uM
# Homo sapiens [37] = organism: Homo sapiens; experiment: Mitogen-induced human lymphocyte proliferation measured by incorporation of [3H]thymidine in lymphocytes with Concanavalin A (Con A) at a concentration of 0.5 ug with out compound
# Homo sapiens [38] = organism: Homo sapiens; experiment: Mitogen-induced human lymphocyte proliferation measured by incorporation of [3H]thymidine in lymphocytes with Phytohemagglutininin at a concentration of 0.25 ug with compound at 1 uM
# Homo sapiens [39] = organism: Homo sapiens; experiment: Mitogen-induced human lymphocyte proliferation measured by incorporation of [3H]thymidine in lymphocytes with Concanavalin A (Con A) at a concentration of 0.5 ug with compound at 10 uM
# Homo sapiens [40] = organism: Homo sapiens; experiment: Mitogen-induced human lymphocyte proliferation measured by incorporation of [3H]thymidine in lymphocytes with Pokeweed mitogen at a concentration of 1/1250 ug with compound at 50 uM
# Homo sapiens [41] = organism: Homo sapiens; experiment: Mitogen-induced human lymphocyte proliferation measured by incorporation of [3H]thymidine in lymphocytes with Pokeweed mitogen at a concentration of 1/1250 ug with compound at 1 uM
# Homo sapiens [42] = organism: Homo sapiens; experiment: Mitogen-induced human lymphocyte proliferation measured by incorporation of [3H]thymidine in lymphocytes with Phytohemagglutininin at a concentration of 0.25 ug with compound at 50 uM
# Homo sapiens [43] = organism: Homo sapiens; experiment: Mitogen-induced human lymphocyte proliferation measured by incorporation of [3H]thymidine in lymphocytes with Concanavalin A at a concentration of 0.5 ug with compound at 400 uM
# Homo sapiens [44] = organism: Homo sapiens; experiment: Mitogen-induced human lymphocyte proliferation measured by incorporation of [3H]thymidine in lymphocytes with Pokeweed mitogen at a concentration of 1/1250 ug with compound at 10 uM
# Homo sapiens [45] = organism: Homo sapiens; experiment: Mitogen-induced human lymphocyte proliferation measured by incorporation of [3H]thymidine in lymphocytes with Concanavalin A (Con A) at a concentration of 0.5 ug with compound at 0.1 uM
# Homo sapiens [46] = organism: Homo sapiens; experiment: Mitogen-induced human lymphocyte proliferation measured by incorporation of [3H]-thymidine in lymphocytes with Phytohemagglutininin at a concentration of 1 ug with compound at 10 uM
# Homo sapiens [47] = organism: Homo sapiens; experiment: Mitogen-induced human lymphocyte proliferation measured by incorporation of [3H]thymidine in lymphocytes with Phytohemagglutininin at a concentration of 0.25 ug with compound at 400 uM
# Homo sapiens [48] = organism: Homo sapiens; experiment: Mitogen-induced human lymphocyte proliferation measured by incorporation of [3H]thymidine in lymphocytes with Pokeweed mitogen at a concentration of 1/1250 ug with compound at 0.1 uM
# Homo sapiens [49] = organism: Homo sapiens; experiment: Mitogen-induced human lymphocyte proliferation measured by incorporation of [3H]-thymidine in lymphocytes with Concanavalin A (Con A) at a concentration of 0.5 ug with compound at 1 uM
structure (smiles),measurement,setting,value
Nc1nc(O)c2c(C(=O)O)cn(C3O[C@H](CO)[C@@H](O)[C@H]3O)c2n1 (some centres undefined),Incorporation,Homo sapiens [1],14865
same,Incorporation,Homo sapiens [2],15707
same,Incorporation,Homo sapiens [3],9782
same,Incorporation,Homo sapiens [4],45537
same,Incorporation,Homo sapiens [5],44790
same,Incorporation,Homo sapiens [6],52418
same,Incorporation,Homo sapiens [7],42403
same,Incorporation,Homo sapiens [8],15708
same,Incorporation,Homo sapiens [9],42670
same,Incorporation,Homo sapiens [10],47896
same,Incorporation,Homo sapiens [11],42735
same,Incorporation,Homo sapiens [12],53594
same,Incorporation,Homo sapiens [13],42486
same,Incorporation,Homo sapiens [14],43600
same,Incorporation,Homo sapiens [15],54392
same,Incorporation,Homo sapiens [16],12990
same,Incorporation,Homo sapiens [17],50597
same,Incorporation,Homo sapiens [18],36835
same,Incorporation,Homo sapiens [19],51152
same,Incorporation,Homo sapiens [20],14118
same,Incorporation,Homo sapiens [21],13682
same,Incorporation,Homo sapiens [22],43757
same,Incorporation,Homo sapiens [23],45121
same,Incorporation,Homo sapiens [24],17242
same,Incorporation,Homo sapiens [25],1268
same,Incorporation,Homo sapiens [26],40349
same,Incorporation,Homo sapiens [27],10034
same,Incorporation,Homo sapiens [28],38824
same,Incorporation,Homo sapiens [29],40053
same,Incorporation,Homo sapiens [30],55547
Nc1nc2c(c(C(=O)N[C@@H](CCC(=O)O)C(=O)O)nn2C2O[C@H](CO)[C@@H](O)[C@H]2O)c(=O)[nH]1 (some centres undefined),Incorporation,Homo sapiens [31],40443
same,Incorporation,Homo sapiens [32],8002
same,Incorporation,Homo sapiens [33],16224
same,Incorporation,Homo sapiens [4],50330
same,Incorporation,Homo sapiens [34],49556
same,Incorporation,Homo sapiens [35],6506
same,Incorporation,Homo sapiens [36],41114
same,Incorporation,Homo sapiens [37],26393
same,Incorporation,Homo sapiens [38],12995
same,Incorporation,Homo sapiens [39],47573
same,Incorporation,Homo sapiens [40],53140
same,Incorporation,Homo sapiens [41],56187
same,Incorporation,Homo sapiens [18],50246
same,Incorporation,Homo sapiens [42],14187
same,Incorporation,Homo sapiens [43],45681
same,Incorporation,Homo sapiens [26],56641
same,Incorporation,Homo sapiens [44],49105
same,Incorporation,Homo sapiens [45],43786
same,Incorporation,Homo sapiens [46],50830
same,Incorporation,Homo sapiens [28],49176
same,Incorporation,Homo sapiens [47],13781
same,Incorporation,Homo sapiens [48],51918
same,Incorporation,Homo sapiens [49],49196
same,Incorporation,Homo sapiens [30],44427
